According to ChEMBL document CHEMBL1140248, “3-(1,2,3-Triazol-1-yl)-1-thio-galactosides as small, efficient, and hydrolytically stable inhibitors of galectin-3” (Bioorg Med Chem Lett, 2005):

Experiments:
Galectin-3 = Galectin-3 (Mus musculus, UniProt P16110); test: Dissociation constant for mouse Galectin-3
[1] = molecular target: Galectin-3 (Mus musculus) (UniProt P16110); test: Relative affinity for mouse Galectin-3 compared to D-galactose-methyl-beta-glycoside; assay type: functional
Chain of Galectin-3 (Mus musculus) (P16110 whole entry): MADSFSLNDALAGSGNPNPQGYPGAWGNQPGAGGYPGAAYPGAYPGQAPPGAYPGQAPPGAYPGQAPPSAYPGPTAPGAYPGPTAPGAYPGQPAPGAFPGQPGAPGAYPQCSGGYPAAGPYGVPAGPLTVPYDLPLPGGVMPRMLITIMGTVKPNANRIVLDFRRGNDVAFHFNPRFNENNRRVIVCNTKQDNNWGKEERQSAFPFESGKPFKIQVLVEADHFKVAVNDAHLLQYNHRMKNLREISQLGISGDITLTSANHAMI

Chain of Galectin-3 (P16110 whole entry): as above

Compound | Kd (Galectin-3) [µM] | Affinity [1]
CS[C@H]1O[C@@H](COC2O[C@@H](O)[C@H](O)[C@@H](O)[C@H]2O)[C@H](O)[C@@H](NC(=O)c2ccc3ccccc3c2)[C@@H]1O (stereo partly drawn) | 4400 | 1
CSC1OC(CO)C(O)C(n2cc(C3(O)CCCCC3)nn2)C1O (stereo not drawn) | 1750 | 2.5
COC(=O)c1cn(C2C(O)C(CO)OC(SC)C2O)nn1 (stereo not drawn) | 1410 | 3.2
CSC1OC(CO)C(O)C(NC(=O)c2ccccc2)C1O (stereo not drawn) | 2690 | 1.7
CSC1OC(CO)C(O)C(n2cc(C(=O)NCc3ccccc3)nn2)C1O (stereo not drawn) | – | 42
CCCc1cn(C2C(O)C(CO)OC(SC)C2O)nn1 (stereo not drawn) | 4600 | 1
CSC1OC(CO)C(O)C(n2ccnn2)C1O (stereo not drawn) | > 20000 | < 0.2
LACTOSE, ANHYDROUS | – | 20

Further lines, results first:

Kd (Galectin-3) [µM] | Affinity [1] | Compound
67 | 64 | CS[C@H]1O[C@@H](COC2O[C@@H](OC([C@H](O)CO)[C@H](O)[C@@H](NC(C)=O)C(C)=O)[C@H](O)[C@@H](O)[C@H]2O)[C@H](O)[C@@H](NC(=O)c2ccc3ccccc3c2)[C@@H]1O (stereo partly drawn)
147 | 29 | CSC1OC(CO)C(O)C(n2cc(-c3ccccc3)nn2)C1O (stereo not drawn)
124 | 36 | CCCCNC(=O)c1cn(C2C(O)C(CO)OC(SC)C2O)nn1 (stereo not drawn)
272 | 16 | CSC1OC(CO)C(O)C(NC(=O)c2ccc3ccccc3c2)C1O (stereo not drawn)
230 | 19 | CNC(=O)c1cn(C2C(O)C(CO)OC(SC)C2O)nn1 (stereo not drawn)
386 | 12 | CSC1OC(CO)C(O)C(n2cc(C(=O)NCCCO)nn2)C1O (stereo not drawn)
571 | 7.5 | CSC1OC(CO)C(O)C(n2cc(C(=O)NCCN3CCOCC3)nn2)C1O (stereo not drawn)
